From PMC9695592, “Phenotypic Evaluation of Nucleoside Analogues against Trypanosoma cruzi Infection: In Vitro and In Vivo Approaches” (Molecules, 2022) come the findings set out here.

Where two headings read alike, the source gives them in different places. Bounds are passed on as bounds.

The test system of assay [1] is promastigotes of Lmex^ΔNT1+TcrNT2. Nature of the assay: Resazurin-based assay on Cas9^ΔNT1+TcrNT2 promastigotes. Format: cell-based, Leishmania mexicana. Conditions: for EC50: Leishmania mexicana, read-out: Lmex^ΔNT1+TcrNT2 EC50 (μM); for Lmex^ΔNT1+TcrNT2 Sensitization (fold): ratio of the EC50 values of the Cas9^ΔNT1 and Cas9^ΔNT1+TcrNT2 strains. On the procedure: (§1) Bloodstream trypomastigotes of the Y strain (DTU II) were obtained by cardiac puncture of infected Swiss Webster mice on the parasitemia peak to perform drug sensitivity assays. Trypomastigote forms of the Tulahuen-β gal strain were collected from the supernatant of previously infected L929 cell cultures (host/parasite cell ratio 10:1). The intracellular forms T. cruzi were studied by the infection of L929 and H9C2 (2D and 3D) cell cultures infected for 48 and 24 h with trypomastigotes of Tulahuen-β gal and Y strains, respectively. The Leishmania mexicana-Cas9 T7 strain (LmexCas9) was derived from L. mexicana WT promastigotes by expression of the Streptococcus pyogenes Cas9 nuclease gene ‘Cas9′ and maintained on 32 μg/mL hygromycin [51]. This strain and the derived strains Cas9^ΔNT1 and Cas9^ΔNT1+TcrNT2 were cultured in HOMEM medium supplemented with 10% of FBS and 1% Penicillin-Streptomycin antibiotic in unvented flasks at 25 °C [52]. The Cas9^ΔNT1 strain is identical to Cas9 except that the LmexNT1.1/NT1.2 locus encoding the L. mexicana adenosine/ pyrimidine transporters was excised using Cas9 [17, 40]. Cas9^ΔNT1+TcrNT2 is the further modification of that strain by the expression of the T. cruzi nucleoside transporter 2 (TcrNT2) gene in it, using the vector pNUS-HcN [53]. Appropriate antibiotics were added for the selection and maintenance of transfectants.
(§2) The EC50 values for nucleoside analogues against Leishmania mexicana promastigotes of the Cas9, Cas9^ΔNT1 and Cas9^ΔNT1+TcrNT2 strains used a resazurin-based assay, as described. Briefly, the assays were performed in standard HOMEM medium and culture conditions, in white opaque 96-well plates. For each test compound (stored as a 40 mM stock solution in 100% DMSO at −20 °C), a doubling dilution was performed over 2 rows of the plate, keeping the last well free as no-drug control with HOMEM only (23 doubling dilutions; highest concentration 100 µM). To each well, 100 µL of HOMEM containing 2 × 10^5 cells of the appropriate L. mexicana line was added, and the plates incubated for 72 h at 25 °C, followed by the addition of 20 µL of resazurin solution and further incubation for 48 h. Fluorescence was read on a FLUOstar OPTIMA plate reader (BMG Labtech, Germany), at an excitation wavelength of 544 nm and an emission wavelength of 620 nm. The EC50 values were determined by the GraphPad Prism 8.0 software using an equation for a sigmoid curve with variable slope. Pentamidine was used as positive control, and every experiment was independently performed at least 3 times independently.
A general note: The colour change of resazurin is a common sign of viable cells or microbes.

Assay [2] concerns promastigotes of LmexCas9. Nature of the assay: Resazurin-based assay on LmexCas9 promastigotes. Format: cell-based, Leishmania mexicana. On the procedure:
as §1, §2

The subject of assay [3] is promastigotes of Cas9^ΔNT1. Nature of the assay: Resazurin-based assay on Cas9^ΔNT1 promastigotes. Format: cell-based, Leishmania mexicana. Conditions: Leishmania mexicana, read-out: Cas9^ΔNT1 EC50 (μM), promastigotes, resazurin-based assay, highest concentration 100 µM. On the procedure:
as §1, §2

For assay [4], the target named is LmexNT1 (Leishmania mexicana, UniProt E9AQB5). Nature of the assay: Inhibition of [3H]-adenosine uptake by LmexNT1.1 expressed in L. mexicana promastigotes. Format: biochemical. On the procedure:
Figure 2 Uptake of 50 nM [^3H]-adenosine by LmexNT1.1 expressed in L. mexicana promastigotes from which both original alleles of LmexNT1.1/NT1.2 and of LmexNT2 had been deleted by CRISPR/cas9. Incubation time was 10 s, well within the linear phase of uptake. Symbols represent averages of triplicate determinations, and error bars indicate ± SEM when not shown error bars fall within the symbol. The graph shown is a single experiment in triplicate, representative of three identical, independent repeats.
Uptake of 50 nM 2,8-^3H-adenosine (American Radiolabelled Chemicals (ART0287A), 40 Ci/ mmol) was exactly measured, exactly as described. Briefly, promastigotes were washed into the standard assay buffer (AB) by centrifugation, and aliquots of 100 µL containing 10^7 parasites were incubated with the radiolabel on top of an oil layer in a microfuge tube, for exactly 5 s. The incubation was stopped by the addition of 800 µL of ice-cold 1 mM adenosine in AB and immediate centrifugation through the oil layer to separate cells from the remaining extracellular radiolabel. Cell pellets were collected in scintillation vials after flash freezing in liquid nitrogen, by cutting of the tip of the microfuge tube. The promastigotes were then solubilised in 1% SDS, and scintillation fluid was added (Scintlogic U, Lablogic), and radioactivity was quantified in a Hidex 300SL scintillation counter (Lablogic). Data was plotted using non-linear regression with an equation for a sigmoid curve with a variable slope in Prism v8 (GraphPad).

Assay [5] has as its system H9C2 3D cultures. As to the kind of experiment: Cardiotoxicity on H9C2 organoids (3D), PrestoBlue. Format: cell-based, rat. Particulars: Rattus norvegicus, H9c2, 168 h, 3D H9C2, seven days of compound incubation; 95% confidence interval in brackets; read-out: Cardiotoxic profile IC50 (µM) 3D. The text has this:
(§3) L929 cell lines were used to evaluate the effect of the nucleoside derivatives on the cellular viability of mammalian host cells and to assess their activity against intracellular forms of T. cruzi (Tulahuen strain expressing E. coli β-galactosidase gene, DTU VI) as reported. 2D and 3D culture systems of rat cardiomyoblast cell lines (H9C2(2-1)) were used to evaluate cardiotoxicity and to test the derivatives’ activity on intracellular forms (Y strain, DTU II). In all assays, the cell cultures were maintained at 37 °C under an atmosphere of 5% CO2.
L929 cells seeded in sterile 96-well microtiter plates were exposed or not to increasing concentrations (up to 200 µM) of the compounds. After seven days of incubation, the cell growth of treated cultures was compared to untreated control cells (100% cell growth). Cellular viability was assessed through AlamarBlue® (resazurin sodium salt) colorimetric assay, and the results were expressed as % reduction in cell growth/viability compared to untreated control, and an IC50 value determined. For the assays using H9C2 cultures, 25 × 10^3 cells/well were seeded in a 96-well microtiter plates (flat and U bottoms, precoated with agarose 1% for preparing 2- and 3D matrices, respectively) and maintained at 37 °C [48, 54].
The cardiac cultures were exposed or not to increasing concentrations of the nucleoside derivatives (up to 300 µM), and after seven days of incubation, their physiology and morphology was evaluated by light microscopy. Cell viability was measured using the PrestoBlue® (PB) colorimetric assay, the results evaluated as % reduction in cell growth/viability compared to untreated control, and an IC50 value determined. The data results from at least two independent experiments done in at least duplicates.

In assay [6] the test system is H9C2 2D cultures. As to the kind of experiment: Cardiotoxicity on H9C2 monolayers (2D), PrestoBlue. Format: cell-based. Conditions: Rattus norvegicus, 168 h; 2D H9C2, seven days of compound incubation; 95% confidence interval in brackets; read-out: Cardiotoxic profile IC50 (µM) 2D.
From the text: as §3
L929 cells seeded in sterile 96-well microtiter plates were exposed or not to increasing concentrations (up to 200 µM) of the compounds. […] Cellular viability was assessed through AlamarBlue® (resazurin sodium salt) colorimetric assay, and the results were expressed as % reduction in cell growth/viability compared to untreated control, and an IC50 value determined. For the assays using H9C2 cultures, 25 × 10^3 cells/well were seeded in a 96-well microtiter plates (flat and U bottoms, precoated with agarose 1% for preparing 2- and 3D matrices, respectively) and maintained at 37 °C [48, 54].
[…] Cell viability was measured using the PrestoBlue® (PB) colorimetric assay, the results evaluated as % reduction in cell growth/viability compared to untreated control, and an IC50 value determined. The data results from at least two independent experiments done in at least duplicates.

The mark [7] stands for this setting: Leishmania mexicana, read-out: Cas9 EC50 (μM), promastigotes, resazurin-based assay, highest concentration 100 µM.

Sequence of LmexNT1 (E9AQB5 entry or part of it): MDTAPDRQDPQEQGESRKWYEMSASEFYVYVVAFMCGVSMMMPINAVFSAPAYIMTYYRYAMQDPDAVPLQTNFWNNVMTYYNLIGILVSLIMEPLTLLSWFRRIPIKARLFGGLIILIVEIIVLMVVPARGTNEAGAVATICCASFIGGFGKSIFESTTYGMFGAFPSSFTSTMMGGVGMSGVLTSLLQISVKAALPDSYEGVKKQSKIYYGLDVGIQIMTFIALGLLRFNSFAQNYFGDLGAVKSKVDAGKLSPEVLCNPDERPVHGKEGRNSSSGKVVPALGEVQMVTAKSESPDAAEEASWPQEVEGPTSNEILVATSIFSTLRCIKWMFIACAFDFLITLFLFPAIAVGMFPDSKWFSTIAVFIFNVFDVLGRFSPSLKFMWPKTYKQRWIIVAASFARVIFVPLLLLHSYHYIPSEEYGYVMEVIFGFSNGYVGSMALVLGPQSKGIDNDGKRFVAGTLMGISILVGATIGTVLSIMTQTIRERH

Turning to `Nc1ncnc2c1c(-c1ccc(Cl)cc1)cn2[C@@H]1O[C@H](CO)[C@@H](O)[C@H]1O` [TH1012], the EC50 in assay [1] came to 96.6 ± 0.3 µM; in assay [2] (setting [7]), 52.5 ± 0.3 µM; in assay [3], 280 ± 18 µM. In assay [1], the “Lmex^ΔNT1+TcrNT2 Sensitization (fold)” value was 2.9 fold.
For the compound `Nc1ncnc2c1c(-c1ccccc1)cn2[C@@H]1O[C@H](CO)[C@@H](O)[C@H]1O` [TH1004], the EC50 in assay [1] was 101 ± 0.5 µM; in assay [2] (setting [7]), 37 ± 0.23 µM; in assay [3], 138 ± 10 µM. In addition, the “Lmex^ΔNT1+TcrNT2 Sensitization (fold)” value in assay [1] is listed as 1.37 fold. Moreover, the affinity in assay [4] corresponds to a Ki of 3.8 ± 0.3 µM.
`Nc1ncnc2c1c(-c1ccc(Cl)c(Cl)c1)cn2[C@@H]1O[C@H](CO)[C@@H](O)[C@H]1O` [FH3147, 7-(3,4-dichlorophenyl)tubercidin]: the EC50 in assay [1] is 13.7 ± 1.25 µM; in assay [2] (setting [7]) it was 8.4 ± 1.6 µM; in assay [2] (read-out: Cas9 EC50, promastigotes, resazurin-based assay, highest concentration 100 µM), 8.41 ± 1.61 µM; in assay [3] it was more than 100 µM.
`Nc1ncnc2c1ccn2[C@@H]1O[C@H](CO)[C@@H](O)[C@H]1O` [Tubercidin, reference compound]: the EC50 in assay [2] (setting [7]) is 1.02 ± 0.16 µM; in assay [3] it was 25.7 ± 0.94 µM. The same compound showed a Ki in assay [4] of 5.8 ± 0.6 µM.
As to `N=C(N)c1ccc(OCCCCCOc2ccc(C(=N)N)cc2)cc1` [Pentamidine, reference compound], the EC50 in assay [1] was 1.12 ± 0.17 µM; in assay [2] (setting [7]), 0.87 ± 0.1 µM; in assay [3], 1.25 ± 0.22 µM. Also, the “Lmex^ΔNT1+TcrNT2 Sensitization (fold)” value in assay [1] amounted to 1.11 fold. Further, the IC50 in assay [5] was more than 200 µM; in assay [6], 46 µM.
Consider `Nc1ncnc2c1c(Cl)cn2[C@@H]1O[C@H](CO)[C@@H](O)[C@H]1O` [FH3169], for which the values for the EC50 in assay [1], in assay [2] (setting [7]) and in assay [3] were 0.32 ± 0.05 µM, 0.24 ± 0.06 µM and 2 ± 0.19 µM, respectively. Moreover, the “Lmex^ΔNT1+TcrNT2 Sensitization (fold)” value in assay [1] worked out at 6.3 fold. In assay [4], the Ki came out at 2.8 ± 0.2 µM.

A word on the Ki: it is a measure of affinity in units of concentration, obtained from inhibition or displacement. For orientation: IC50 means the concentration that inhibits the measured activity by half.
